# Biological target: human GluN1/GluN2B NMDA receptors (Homo sapiens, UniProt Q05586+Q13224)
# Test: Cell-based calcium flux (FLIPR) assay on cloned human NR1/NR2B ion channels expressed in mammalian cells
# Conditions: standard assay; glutamate at ~EC80; FLIPR calcium flux
# Procedure, shortened: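 Calcium influx followed by FLIPR fluorescence after 5 min compound exposure and a further 5 min co-agonist challenge: 10 μM glycine with glutamate at ~EC80 (standard) or EC40 (HTS).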
# Sequence of human GluN1/GluN2B NMDA receptors (Q13224 27-1484, other chains not shown): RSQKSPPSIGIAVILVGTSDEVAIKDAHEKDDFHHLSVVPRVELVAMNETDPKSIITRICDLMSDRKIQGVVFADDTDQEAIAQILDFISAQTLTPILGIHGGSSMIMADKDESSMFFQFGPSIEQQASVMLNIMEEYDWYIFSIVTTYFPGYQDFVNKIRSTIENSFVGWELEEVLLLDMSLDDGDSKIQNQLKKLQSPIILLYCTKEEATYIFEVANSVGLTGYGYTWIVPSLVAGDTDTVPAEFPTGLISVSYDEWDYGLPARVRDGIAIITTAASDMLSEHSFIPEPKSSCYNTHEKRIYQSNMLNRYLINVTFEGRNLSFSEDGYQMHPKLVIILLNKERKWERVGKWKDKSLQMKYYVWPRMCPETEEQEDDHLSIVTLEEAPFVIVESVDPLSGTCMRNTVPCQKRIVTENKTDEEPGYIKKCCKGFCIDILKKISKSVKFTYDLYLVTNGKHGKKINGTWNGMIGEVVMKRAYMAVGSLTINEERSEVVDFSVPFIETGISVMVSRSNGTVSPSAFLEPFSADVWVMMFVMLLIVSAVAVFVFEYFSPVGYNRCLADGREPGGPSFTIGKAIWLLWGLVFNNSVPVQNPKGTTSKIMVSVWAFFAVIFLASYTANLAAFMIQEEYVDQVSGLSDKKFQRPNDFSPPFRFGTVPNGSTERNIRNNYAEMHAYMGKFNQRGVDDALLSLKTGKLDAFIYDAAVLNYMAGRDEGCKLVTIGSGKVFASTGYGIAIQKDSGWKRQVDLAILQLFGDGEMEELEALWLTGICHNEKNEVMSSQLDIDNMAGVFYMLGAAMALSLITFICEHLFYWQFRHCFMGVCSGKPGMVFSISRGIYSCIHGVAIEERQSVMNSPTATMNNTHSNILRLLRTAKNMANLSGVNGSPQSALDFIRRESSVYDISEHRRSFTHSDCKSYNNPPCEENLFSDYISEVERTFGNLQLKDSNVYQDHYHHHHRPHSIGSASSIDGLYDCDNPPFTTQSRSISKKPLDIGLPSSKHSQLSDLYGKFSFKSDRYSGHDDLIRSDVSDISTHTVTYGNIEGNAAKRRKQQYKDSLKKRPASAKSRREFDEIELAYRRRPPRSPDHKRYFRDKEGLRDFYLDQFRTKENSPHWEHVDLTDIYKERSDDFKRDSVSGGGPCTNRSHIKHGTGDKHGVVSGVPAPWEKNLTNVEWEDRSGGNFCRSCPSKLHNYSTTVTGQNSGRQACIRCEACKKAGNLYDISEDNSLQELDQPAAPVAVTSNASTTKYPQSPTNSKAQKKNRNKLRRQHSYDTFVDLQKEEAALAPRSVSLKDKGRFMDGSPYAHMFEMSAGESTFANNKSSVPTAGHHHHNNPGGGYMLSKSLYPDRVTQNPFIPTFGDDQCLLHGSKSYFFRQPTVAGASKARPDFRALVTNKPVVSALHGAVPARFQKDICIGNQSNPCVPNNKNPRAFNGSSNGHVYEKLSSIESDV
row,SMILES,IC50 [µM]
1,"CC(C)(O)c1cnc(OCc2cn(-c3cccc(Cl)c3F)nn2)nc1 [Example 615, 2-[2-[[1-(3-Chloro-2-fluoro-phenyl)triazol-4-yl]methoxy]pyrimidin-5-yl]propan-2-ol]",4.66
2,"OCc1cnc(OCc2cn(-c3ccc(F)c(Br)c3)nn2)nc1 [Example 616, [2-[[1-(3-Bromo-4-fluoro-phenyl)triazol-4-yl]methoxy]pyrimidin-5-yl]methanol]",0.03
3,"OCc1ccnc(OCc2cn(-c3ccc(F)c(Br)c3)nn2)n1 [Example 617, [2-[[1-(3-Bromo-4-fluoro-phenyl)triazol-4-yl]methoxy]pyrimidin-4-yl]methanol]",0.041
4,"FCCOc1cnc(OCc2cn(-c3ccc(F)c(Br)c3)nn2)nc1 [Example 618, 2-[[1-(3-Bromo-4-fluoro-phenyl)triazol-4-yl]methoxy]-5-(2-fluoroethoxy)pyrimidine]",0.006
5,"Fc1ccc(-n2cc(COc3ncccn3)nn2)cc1Cl [Example 619, 2-[[1-(3-Chloro-4-fluoro-phenyl)triazol-4-yl]methoxy]pyrimidine]",0.217
6,"Cc1cnc(OCc2cn(-c3ccc(F)c(Cl)c3)nn2)nc1 [Example 620, 2-[[1-(3-Chloro-4-fluoro-phenyl)triazol-4-yl]methoxy]-5-methyl-pyrimidine]",0.008
7,"CCc1cnc(OCc2cn(-c3ccc(F)c(Cl)c3)nn2)nc1 [Example 621, 2-[[1-(3-Chloro-4-fluoro-phenyl)triazol-4-yl]methoxy]-5-ethyl-pyrimidine]",0.003
8,"COCc1ccnc(OCc2cn(-c3ccc(F)c(Cl)c3)nn2)n1 [Example 622, 2-[[1-(3-Chloro-4-fluoro-phenyl)triazol-4-yl]methoxy]-4-(methoxymethyl)pyrimidine]",0.066
9,"CC(C)c1ccnc(OCc2cn(-c3ccc(Cl)c(C(F)F)c3)nn2)n1 [Example 623, 2-[[1-[4-Chloro-3-(difluoromethyl)phenyl]triazol-4-yl]methoxy]-4-isopropyl-pyrimidine]",0.129
10,"OCc1cnc(OCc2cn(-c3ccc(Cl)c(C(F)F)c3)nn2)nc1 [Example 624, [2-[[1-[4-Chloro-3-(difluoromethyl)phenyl]triazol-4-yl]methoxy]pyrimidin-5-yl]methanol]",0.02
11,"OCc1ccnc(OCc2cn(-c3ccc(Cl)c(C(F)F)c3)nn2)n1 [Example 625, [2-[[1-[4-Chloro-3-(difluoromethyl)phenyl]triazol-4-yl]methoxy]pyrimidin-4-yl]methanol]",0.017
12,"CC(C)(O)c1cnc(OCc2cn(-c3ccc(Cl)c(C(F)F)c3)nn2)nc1 [Example 626, 2-[2-[[1-[4-Chloro-3-(difluoromethyl)phenyl]triazol-4-yl]methoxy]pyrimidin-5-yl]propan-2-ol]",0.067
13,"COCc1ccnc(OCc2cn(-c3ccc(Cl)c(C(F)F)c3)nn2)n1 [Example 627, 2-[[1-[4-Chloro-3-(difluoromethyl)phenyl]triazol-4-yl]methoxy]-4-(methoxymethyl)pyrimidine]",0.038
14,"FC(F)c1ccnc(OCc2cn(-c3ccc(Cl)c(C(F)F)c3)nn2)n1 [Example 628, 2-[[1-[4-Chloro-3-(difluoromethyl)phenyl]triazol-4-yl]methoxy]-4-(difluoromethyl)pyrimidine]",0.042
15,"CN(C)c1ccnc(OCc2cn(-c3ccc(Cl)c(C(F)F)c3)nn2)n1 [Example 629, 2-[[1-[4-Chloro-3-(difluoromethyl)phenyl]triazol-4-yl]methoxy]-N,N-dimethyl-pyrimidin-4-amine]",0.007
16,"FC(F)c1cc(-n2cc(COc3ncc(C4CC4)cn3)nn2)ccc1Cl [Example 630, 2-[[1-[4-Chloro-3-(difluoromethyl)phenyl]triazol-4-yl]methoxy]-5-cyclopropyl-pyrimidine]",0.013
17,"FC(F)c1cc(-n2cc(COc3nccc(C4CC4)n3)nn2)ccc1Cl [Example 631, 2-[[1-[4-Chloro-3-(difluoromethyl)phenyl]triazol-4-yl]methoxy]-4-cyclopropyl-pyrimidine]",0.042
18,"Cc1cnc(OCc2cn(-c3ccc(Cl)c(C(F)F)c3)nn2)nc1N [Example 632, 2-[[1-[4-chloro-3-(difluoromethyl)phenyl]triazol-4-yl]methoxy]-5-methyl-pyrimidin-4-amine]",0.004
19,"Cc1cnc(OCc2cn(-c3ccc(Cl)c(C(F)F)c3)nn2)nc1N(C)C [Example 633, 2-[[1-[4-Chloro-3-(difluoromethyl)phenyl]triazol-4-yl]methoxy]-N,N,5-trimethyl-pyrimidin-4-amine]",0.057
20,"FC(F)c1cc(-n2cc(COc3nccc(N4CCCC4)n3)nn2)ccc1Cl [Example 634, 2-[[1-[4-Chloro-3-(difluoromethyl)phenyl]triazol-4-yl]methoxy]-4-pyrrolidin-1-yl-pyrimidine]",0.012
21,"FC(F)c1cc(-n2cc(COc3nccc(N4CCCCC4)n3)nn2)ccc1Cl [Example 635, 2-[[1-[4-Chloro-3-(difluoromethyl)phenyl]triazol-4-yl]methoxy]-4-(1-piperidyl)pyrimidine]",0.169
22,"FCCOc1cnc(OCc2cn(-c3ccc(Cl)c(C(F)F)c3)nn2)nc1 [Example 636, 2-[[1-[4-Chloro-3-(difluoromethyl)phenyl]triazol-4-yl]methoxy]-5-(2-fluoroethoxy)pyrimidine]",0.01
23,"FCCCc1cnc(OCc2cn(-c3ccc(Cl)c(C(F)F)c3)nn2)nc1 [Example 637, 2-[[1-[4-Chloro-3-(difluoromethyl)phenyl]triazol-4-yl]methoxy]-5-(3-fluoropropyl)pyrimidine]",0.011
24,"Cc1cnc(OCc2cn(-c3ccc(N4CCC4)c(C(F)F)c3)nn2)nc1 [Example 638, 2-((1-(4-(Azetidin-1-yl)-3-(difluoromethyl)phenyl)-1H-1,2,3-triazol-4-yl)methoxy)-5-methylpyrimidine]",0.511
25,"Cc1c(F)ccc(-n2cc(COc3ncc(C(C)C)cn3)nn2)c1F [Example 639, 2-[[1-(2,4-Difluoro-3-methyl-phenyl)triazol-4-yl]methoxy]-5-isopropyl-pyrimidine]",0.052
26,"Cc1c(F)ccc(-n2cc(COc3nccc(C(C)C)n3)nn2)c1F [Example 640, 2-[[1-(2,4-Difluoro-3-methyl-phenyl)triazol-4-yl]methoxy]-4-isopropyl-pyrimidine]",1.98
27,"Cc1c(F)ccc(-n2cc(COc3ncc(C(F)F)cn3)nn2)c1F [Example 641, 5-(Difluoromethyl)-2-[[1-(2,4-difluoro-3-methyl-phenyl)triazol-4-yl]methoxy]pyrimidine]",0.111
28,"Cc1c(F)ccc(-n2cc(COc3nccc(C(F)F)n3)nn2)c1F [Example 642, 4-(Difluoromethyl)-2-[[1-(2,4-difluoro-3-methyl-phenyl)triazol-4-yl]methoxy]pyrimidine]",2.21
29,"Cc1c(F)ccc(-n2cc(COc3ncc(C(F)(F)F)cn3)nn2)c1F [Example 643, 2-[[1-(2,4-Difluoro-3-methyl-phenyl)triazol-4-yl]methoxy]-5-(trifluoromethyl)pyrimidine]",0.2
30,"Cc1c(F)ccc(-n2cc(COc3ncc(C(C)(C)O)cn3)nn2)c1F [Example 644, 2-[2-[[1-(2,4-Difluoro-3-methyl-phenyl)triazol-4-yl]methoxy]pyrimidin-5-yl]propan-2-ol]",0.967

# — patent US10233173B2, “Substituted 1,2,3-triazoles as NR2B-selective NMDA modulators” (JANSSEN PHARMACEUTICA NV, priority 2016, dated 2019)
